Measured values as given in patent US20260256751A1, “COMBINATION OF BETA-2-ADRENERGIC RECEPTOR AGONISTS AND GLP-1 RECEPTOR AGONISTS FOR USE IN TREATING HYPERGLYCAEMIA” (ATROGI AB, priority 2023, published 2026).

Tests used:
[1] = system: differentiated L6-myotubes; experiment: Glucose uptake screen (Biological example 1 of WO 2019/053427); format: cell-based; settings: compound at 10 μM, activity relative to isoproterenol at 10 μM, read-out: Biological example 1 of WO 2019/053427 (GU)
Procedure: (§1) Compounds described in publications referenced and incorporated herein were screened in accordance with the procedures outlined in Biological example 1 and Biological example 2 of WO 2019/053427.
L6-myoblasts were grown in Dulbecco's Modified Eagle's Medium (DMEM) containing 1 g/L glucose supplemented with 10% fetal bovine serum (FBS), 2 mM L-glutamine, 50 U/mL penicillin, […] streptomycin and 10 mM HEPES. Cells were plated at 1x 10^5 cells per mL in 24-well plates. After reaching 90% confluence the cells were grown in medium containing 2% FBS for 7 days where upon cells differentiated into myotubes. The differentiated L6-myotubes were serum-starved overnight in medium containing 0.5% fatty-acid free BSA and stimulated with Compound A at a final concentration of 1×10^−5 M in the presence of the selective β2-adrenergic receptor antagonist ICI-118551. After 1 h 40 min the cells were washed with warm, glucose free medium twice and another portion of agonist was added to the glucose free medium. After another 20 min of incubation the cells were exposed to 50 nM ^3H-2-deoxyglucose for 10 min before washed in ice cold glucose free medium three times and lysed in 400 µl/well 0.2 M NaOH for 1 h at 60° C. The cell lysate was mixed with 4 ml scintillation buffer (Emulsifier Safe, Perkin Elmer) and the radioactivity was detected in a P-counter (Tri-Carb 4810TR, Perkin Elmer).

[2] = system: differentiated L6-myotubes; experiment: cAMP production relative to isoprenaline (Biological example 2 of WO 2019/053427); format: cell-based; settings: 0.25 h, compound at 10 μM, activity relative to isoproterenol at 10 μM
From the text: For example, the level of cAMP production induced by a given compound can be determined by reference to the amount induced by a defined concentration of that compound relative to that induced by the same concentration of a reference compound, such as isoprenaline, using techniques known to those skilled in the art (e.g. following the protocol as described in the biological examples provided in WO 2019/053427, i.e. in cells, such as differentiated L6-myotubes, having been stimulated with isoprenaline or the compound with a final concentration of 1×10^−5 M, for 15 min in stimulation buffer, such as HBSS supplemented with 1% BSA, 5 mM HEPES and 1 mM IBMX, at pH 7.4).
as §1

Structure (SMILES)	Emax at 10 µM [1] [%]	Emax at 10 µM [2] [%]
CC1(NC[C@H](O)c2cccc(F)c2)CC1 [Compound 82, (R)-1-(m-fluorophenyl)-2-(1-methylcyclopropylamino)-1-ethanol]	> 75	< 25
CC1(NC[C@H](O)c2cccc(F)c2)CCC1 [Compound 83, (R)-1-(m-fluorophenyl)-2-(1-methylcyclobutylamino)-1-ethanol]	> 75	25 to 50
CC(C)(C)NC[C@H](O)c1ccc(F)c(O)c1 [Compound 84, (R)-2-(tert-butylamino)-1-(4-fluoro-3-hydroxyphenyl)-1-ethanol]	> 75	50 to 75
CCCCNC[C@H](O)c1ccc(F)c(O)c1 [Compound 85, (R)-2-(butylamino)-1-(4-fluoro-3-hydroxyphenyl)-1-ethanol]	> 75	< 25
CC(C)(C)NC[C@H](O)c1cccc(O)c1F [Compound 86, (R)-2-(tert-butylamino)-1-(2-fluoro-3-hydroxyphenyl)-1-ethanol]	50 to 75	50 to 75
CCCCNC[C@H](O)c1cccc(O)c1F [Compound 87, (R)-2-(butylamino)-1-(2-fluoro-3-hydroxyphenyl)-1-ethanol]	> 75	25 to 50
CCCCNC[C@H](O)c1cnc(NC(=O)C(C)C)nc1 [Compound 88, N-{5-[(R)-2-(butylamino)-1-hydroxyethyl]-2-pyrimidinyl}2-methylpropionamide]	50 to 75	< 25
CCCCNC[C@H](O)c1cnc(N)nc1 [Compound 89, (R)-1-(2-amino-5-pyrimidinyl)-2-(butylamino)-1-ethanol]	50 to 75	< 25
CCCCNC[C@H](O)c1cccc(N)c1F [Compound 90, (R)-1-(3-amino-2-fluorophenyl)-2-(butylamino)-1-ethanol]	50 to 75	< 25
CC(C)(C)NC[C@H](O)c1cccc(N)c1F [Compound 91, (R)-1-(3-amino-2-fluorophenyl)-2-(tert-butylamino)-1-ethanol]	> 75	25 to 50
CCC[C@H]1CCC[C@H]([C@H](O)c2ccc(F)cc2)N1 [Compound 92, (R)-[(2R,6S)-6-propyl-2-piperidyl](p-fluorophenyl)methanol]	25 to 50	< 25
CCC[C@H]1CCC[C@H]([C@H](O)c2ccccc2F)N1 [Compound 93, (R)-[(2R,6S)-6-propyl-2-piperidyl](o-fluorophenyl)methanol]	25 to 50	< 25
CCC[C@@H]1CCC[C@H]([C@H](O)c2ccc(F)cc2)N1 [Compound 94, (R)-[(2R,6R)-6-propyl-2-piperidyl](p-fluorophenyl)methanol]	50 to 75	< 25
CC(C)(C)NC[C@H](O)c1ccc(O)cn1 [Compound 95, 6-[(S)-2-(tert-butylamino)-1-hydroxyethyl]-3-pyridinol]	50 to 75	< 25
CC(C)(C)NC[C@H](O)c1ccc(F)cn1 [Compound 96, (S)-2-(tert-butylamino)-1-(5-fluoro-2-pyridyl)-1-ethanol]	50 to 75	< 25
CCC[C@@H]1CCC[C@H]([C@H](O)c2ccccc2F)N1 [Compound 97, (R)-[(2R,6R)-6-propyl-2-piperidyl](o-fluorophenyl)methanol]	50 to 75	< 25
Cn1ccc([C@@H](O)CNC(C)(C)C)cc1=O [Compound 98, 4-[(R)-2-(tert-butylamino)-1-hydroxyethyl]-1-methyl-2(1H)-pyridinone]	> 75	< 25
CC(C)(C)NC[C@H](O)c1cncc(F)c1 [Compound 99, (R)-2-(tert-butylamino)-1-(5-fluoro-3-pyridyl)-1-ethanol]	> 75	25 to 50
CC(C)(C)NC[C@H](O)c1cncc(O)c1 [Compound 100, 5-[(R)-2-(tert-butylamino)-1-hydroxyethyl]-3-pyridinol]	> 75	< 25

Structure (SMILES)	Emax at 10 µM [1] [%]	Emax at 10 µM [2] [%]
CC1(C)CCC[C@H]([C@@H](O)c2cccc(F)c2)N1 [Compound 101, (S)-[(R)-6,6-dimethyl-2-piperidyl](m-fluorophenyl)methanol]	25 to 50	< 25
CC1(C)CCC[C@H]([C@H](O)c2cccc(F)c2)N1 [Compound 102, (R)-[(R)-6,6-dimethyl-2-piperidyl](m-fluorophenyl)methanol]	50 to 75	< 25
CC1(C)CCC[C@H]([C@@H](O)c2cccc(O)c2)N1 [Compound 103, (S)-[(R)-6,6-dimethyl-2-piperidyl](m-hydroxyphenyl)methanol]	25 to 50	< 25
CC1(C)CCC[C@H]([C@H](O)c2cccc(O)c2)N1 [Compound 104, (R)-[(R)-6,6-dimethyl-2-piperidyl](m-hydroxyphenyl)methanol]	25 to 50	< 25
CCC[C@H]1CCC[C@H]([C@@H](O)c2ccc(F)cc2)N1 [Compound 105, (S)-[(2R,6S)-6-propyl-2-piperidyl](p-fluorophenyl)methanol]	25 to 50	< 25
CCC[C@H]1CCC[C@H]([C@@H](O)c2ccccc2F)N1 [Compound 106, (S)-[(2R,6S)-6-propyl-2-piperidyl](o-fluorophenyl)methanol]	25 to 50	< 25
CCC[C@@H]1CCC[C@H]([C@@H](O)c2ccccc2F)N1 [Compound 107, (S)-[(2R,6R)-6-propyl-2-piperidyl](o-fluorophenyl)methanol]	25 to 50	< 25
CC(C)(C)NC[C@H](O)c1ccncc1F [Compound 108, (R)-2-(tert-butylamino)-1-(3-fluoro-4-pyridyl)-1-ethanol]	25 to 50	< 25
CC1(C)CC[C@H]([C@@H](O)c2cccc(F)c2)N1 [Compound 109, (S)-[(R)-5,5-dimethyl-2-pyrrolidinyl](m-fluorophenyl)methanol]	25 to 50	< 25
CC1(C)CC[C@H]([C@H](O)c2cccc(F)c2)N1 [Compound 110, (R)-[(R)-5,5-dimethyl-2-pyrrolidinyl](m-fluorophenyl)methanol]	> 75	< 25
CC1(C)CC[C@H]([C@@H](O)c2cccc(O)c2)N1 [Compound 111, m-{(S)-[(R)-5,5-dimethyl-2-pyrrolidinyl]hydroxymeth-yl}phenol]	50 to 75	< 25
CC1(C)CC[C@H]([C@H](O)c2cccc(O)c2)N1 [Compound 112, m-{(R)-[(R)-5,5-dimethyl-2-pyrrolidinyl]hydroxymeth-yl}phenol]	> 75	< 25
CCC[C@@H]1CCC[C@@H]([C@@H](O)c2cccc(O)c2)N1 [Compound 113, (S)-[(2S,6R)-6-propyl-2-piperidyl](m-hydroxyphenyl)methanol]	50 to 75	< 25
CCC[C@@H]1CCC[C@@H]([C@@H](O)c2cccc(Cl)c2)N1 [Compound 114, (S)-[(2S,6R)-6-propyl-2-piperidyl](m-chlorophenyl)methanol]	25 to 50	< 25
CCC[C@@H]1CCC[C@@H]([C@H](O)c2cccc(Cl)c2)N1 [Compound 115, (R)-[(2S,6R)-6-propyl-2-piperidyl](m-chlorophenyl)methanol]	> 75	< 25
CCC[C@@H]1CCC[C@@H]([C@H](O)c2cccc(F)c2)N1 [Compound 116, (R)-[(2S,6R)-6-propyl-2-piperidyl](m-fluorophenyl)methanol]	25 to 50	< 25
CC(C)(C)CNC[C@H](O)c1cccc(F)c1 [Compound 117, (R)-1-(m-flurophenyl)-2-(neopentylamino)-1-ethanol]	25 to 50	< 25
O[C@@H](CNC1(C(F)(F)F)CC1)c1cccc(F)c1 [Compound 118, (R)-1-(m-fluorophenyl)-2-[1-(trifluoromethyl)cyclopro-pylamino]-1-ethanol]	50 to 75	< 25
CCC[C@H]1CCC[C@@H]([C@@H](O)c2cccc(F)c2)N1 [Compound 119, (S)-[(2S,6S)-6-propyl-2-piperidyl](m-fluorophenyl)methanol]	25 to 50	< 25
